Measured values as given in ChEMBL document CHEMBL3769391, “Identification of a new cyathane diterpene that induces mitochondrial and autophagy-dependent apoptosis and shows a potent in vivo anti-colorectal cancer activity” (Eur J Med Chem, 2016).
Active and inactive are the calls of the source. The rule behind the calls is not given here.

How the values were obtained:
Mus musculus [1] = test: Hepatotoxicity in immune deficient nude BALB/c mouse xenografted with Bax deficient human HCT116 cells assessed as changes in albumin level in serum at 5 and 10 mg/kg, ip administered every other day for 2 weeks measured during compound dosing; format: toxicity, organism-based, HCT-116; conditions: in vivo, 336 h
HCT-116 [2] = test: Induction of apoptosis in Bax deficient human HCT116 cells assessed as late apoptotic cells at 5 uM after 24 hrs by Annexin V-FITC/propidium iodide staining based flow cytometry (reference value: 1.5%); format: functional
[3] = biological target: c-Jun N-terminal kinase, JNK (Homo sapiens) (UniProt P45983+P53779+P45984); test: Induction of JNK phosphorylation in human HCT116 cells at 5 uM after 4 hrs by Western blot analysis; format: cell-based; conditions: HCT-116
Mus musculus [4] = test: Hepatotoxicity in immune deficient nude BALB/c mouse xenografted with human HCT116 cells assessed as changes in albumin level in serum at 5 and 10 mg/kg, ip administered every other day for 2 weeks measured during compound dosing; format: toxicity, organism-based, HCT-116; conditions: in vivo, 336 h
HCT-116 [5] = test: Induction of apoptosis in Bax deficient human HCT116 cells assessed as late apoptotic cells at 15 uM after 24 hrs by Annexin V-FITC/propidium iodide staining based flow cytometry in presence of DTT (reference value: 1.56%); format: functional
HCT-116 [6] = test: Induction of apoptosis in human HCT116 cells assessed as increase in mitochondrial superoxide radical after 16 hrs by MitoSOX Red staining based flow cytometry; format: functional, cell-based
Mus musculus [7] = test: Toxicity in immune deficient nude BALB/c mouse xenografted with Bax deficient human HCT116 cells assessed as changes in body weight at 5 and 10 mg/kg, ip administered every other day for 2 weeks measured during compound dosing; format: organism-based, HCT-116; conditions: in vivo, 336 h
HCT-116 [8] = test: Induction of apoptosis in Bax deficient human HCT116 cells assessed as late apoptotic cells at 15 uM after 24 hrs by Annexin V-FITC/propidium iodide staining based flow cytometry (reference value: 1.5 to 1.56%); format: functional
HCT-116 [9] = test: Induction of apoptosis in Bax deficient human HCT116 cells assessed as early apoptotic cells at 20 uM after 24 hrs by Annexin V-FITC/propidium iodide staining based flow cytometry (reference value: 1.13%); format: functional
HCT-116 [10] = test: Induction of apoptosis in human HCT116 cells assessed as early apoptotic cells at 10 uM after 24 hrs by Annexin V-FITC/propidium iodide staining based flow cytometry (reference value: 1.06%); format: functional
[11] = Antitumor activity against human HCT116 cells xenografted in immune deficient nude BALB/c mouse assessed as tumor growth inhibition at 10 mg/kg, ip administered every other day for 2 weeks measured after 2 weeks post last dose relative to control; format: functional; conditions: HCT-116, ip, 336 h, read-out: TGI
HCT-116 [12] = test: Induction of apoptosis in human HCT116 cells assessed as late apoptotic cells at 5 uM after 24 hrs by Annexin V-FITC/propidium iodide staining based flow cytometry in presence of DTT (reference value: 3.73%); format: functional
HCT-116 [13] = test: Induction of apoptosis in Bax deficient human HCT116 cells assessed as early apoptotic cells at 10 uM after 24 hrs by Annexin V-FITC/propidium iodide staining based flow cytometry (reference value: 1.13%); format: functional
[14] = Antitumor activity against Bax deficient human HCT116 cells xenografted in immune deficient nude BALB/c mouse assessed as tumor growth inhibition at 5 mg/kg, ip administered every other day for 2 weeks measured after 2 weeks post last dose relative to control; format: functional; conditions: HCT-116, ip, 336 h, read-out: TGI
HCT-116 [15] = test: Induction of apoptosis in human HCT116 cells assessed as early apoptotic cells at 7.5 uM after 24 hrs by Annexin V-FITC/propidium iodide staining based flow cytometry (reference value: 1.06%); format: functional

Activity [3]: Active
Structure (SMILES): CO[C@@H]1C(C=O)=CC[C@@H]2C3=C(C(C)C)CC[C@]3(C)CC[C@@]2(C)[C@H]1O
Activity (Mus musculus [1]): Non-toxic | Activity (HCT-116 [2]): 4.14% | Activity (Mus musculus [4]): Non-toxic | Activity (HCT-116 [5]): 3.36% | Activity (HCT-116 [6]): Dose-dependent effect | Activity (Mus musculus [7]): Non-toxic | Activity (HCT-116 [8]): 29.02% | Activity (HCT-116 [9]): 56.15% | Activity (HCT-116 [10]): 59.5% | inhibition in vivo at 10 mg/kg [11]: 62.2% | Activity (HCT-116 [12]): 13.34% | Activity (HCT-116 [13]): 44.04% | inhibition in vivo at 5 mg/kg [14]: 25.8% | Activity (HCT-116 [15]): 51.38%
